According to patent US20230087118A1, “IMIDAZO[1,2-a][sequence] DERIVATIVES AND THEIR USE IN THE TREATMENT OF DISEASE” (priority 2019, published 2023):
Where a name gives a salt, the structure may show the parent alone. Read-outs that look alike come from different tables or passages of the source.

Target: T1, IRAK4 (Homo sapiens, UniProt Q9NWZ3)
T1 sequence (Q9NWZ3 1-460): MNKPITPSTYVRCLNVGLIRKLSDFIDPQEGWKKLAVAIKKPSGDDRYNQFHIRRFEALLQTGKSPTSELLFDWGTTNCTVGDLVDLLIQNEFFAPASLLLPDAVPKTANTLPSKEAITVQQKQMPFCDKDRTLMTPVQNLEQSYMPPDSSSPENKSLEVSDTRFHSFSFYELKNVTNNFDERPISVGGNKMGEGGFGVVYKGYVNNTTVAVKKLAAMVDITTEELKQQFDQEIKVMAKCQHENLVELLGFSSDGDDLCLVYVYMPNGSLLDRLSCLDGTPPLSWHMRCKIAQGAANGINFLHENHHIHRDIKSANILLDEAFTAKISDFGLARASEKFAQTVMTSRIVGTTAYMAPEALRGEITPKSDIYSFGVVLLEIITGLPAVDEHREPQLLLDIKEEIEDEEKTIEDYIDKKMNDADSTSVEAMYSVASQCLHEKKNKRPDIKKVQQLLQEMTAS
Test: biochemical

[1] = IRAK4 Biochemical Assay (1 mM ATP, 2 h) IC50 (μM), 1 mM ATP, 2 h, 100 pM IRAK4

Structure (SMILES)	IC50 [1]	IC50
COc1ncccc1NC(=O)c1cn2cc(C34CC(C#N)(C3)C4)nc2cc1OC(C)C [Example 403, 2-(3-Cyanobicyclo[1.1.1]pentan-1-yl)-7-isopropoxy-N-(2-methoxypyridin-3-yl)imidazo[1,2-a]pyridine-6-carboxamide]		0.0008 µM
CC(C)Oc1cc2nc(C34COC(C3)C4)cn2cc1C(=O)Nc1cccn(C(F)F)c1=O [Example 547, 2-(2-Oxabicyclo[2.1.1]hexan-4-yl)-N-(1-(difluoromethyl)-2-oxo-1,2-dihydropyridin-3-yl)-7-isopropoxyimidazo[1,2-a]pyridine-6-carboxamide]		0.0008 µM
CC(C)Oc1nc2nc(C34COC(CF)(C3)C4)cn2cc1C(=O)Nc1cnn2cccnc12 [Example 563, 2-(1-(Fluoromethyl)-2-oxabicyclo[2.1.1]hexan-4-yl)-7-isopropoxy-N-(pyrazolo[1,5-a]pyrimidin-3-yl)imidazo[1,2-a]pyrimidine-6-carboxamide]		0.0005 µM
CC1(C)CC(Oc2cc3nc(C4CC4)cn3cc2C(=O)Nc2cccc(C(F)F)n2)C1 [Example 472, 2-Cyclopropyl-N-(6-(difluoromethyl)pyridin-2-yl)-7-(3,3-dimethylcyclobutoxy)imidazo[1,2-a]pyridine-6-carboxamide]		0.0064 µM
CC1CC(Oc2cc3nc(C45COC(C)(C4)C5)cn3cc2C(=O)Nc2ccn(C)n2)C1 (centres unmarked) [Example 549]		0.0034 µM
Cc1cccc(NC(=O)c2cn3cc(C45COC(C)(C4)C5)nc3cc2OC(C)C)n1 [Example 259, 7-Isopropoxy-2-(1-methyl-2-oxabicyclo[2.1.1]hexan-4-yl)-N-(6-methylpyridin-2-yl)imidazo[1,2-a]pyridine-6-carboxamide]		0.0005 µM
CC(C)Oc1cc2nc(C34COC(C)(C3)C4)cn2cc1C(=O)Nc1cccc(C(F)F)n1 [Example 96, N-(6-(difluoromethyl)pyridin-2-yl)-7-isopropoxy-2-(1-methyl-2-oxabicyclo[2.1.1]hexan-4-yl)imidazo[1,2-a]pyridine-6-carboxamide]	0.0002 µM	
CC(C)Oc1nc2nc(C34CCC(C)(CC3)OC4)cn2cc1C(=O)Nc1cc(F)n(C)n1 [Example 382, N-(5-fluoro-1-methyl-1H-pyrazol-3-yl)-7-isopropoxy-2-(1-methyl-2-oxabicyclo[2.2.2]octan-4-yl)imidazo[1,2-a]pyrimidine-6-carboxamide]		0.0046 µM
CC12CCC(c3cn4cc(C(=O)Nc5cccnc5OC(F)F)c(OC5CCC5)cc4n3)(CO1)C2 (centres unmarked) [Example 536, 7-Cyclobutoxy-N-(2-(difluoromethoxy)pyridin-3-yl)-2-(1-methyl-2-oxabicyclo[2.2.1]heptan-4-yl)imidazo[1,2-a]pyridine-6-carboxamide]		0.0016 µM
Cc1cnc2c(NC(=O)c3cn4cc(C56COC(C)(C5)C6)nc4c(F)c3OC(C)C)cnn2c1 [Example 292, 8-Fluoro-7-isopropoxy-2-(1-methyl-2-oxabicyclo[2.1.1]hexan-4-yl)-N-(6-methylpyrazolo[1,5-a]pyrimidin-3-yl)imidazo[1,2-a]pyridine-6-carboxamide trifluoroacetate]	0.0026 µM	
CCc1ncsc1NC(=O)c1cn2cc(C34CCC(C)(C3)OC4)nc2cc1OC(C)C (centres unmarked) [Example 511, N-(4-ethylthiazol-5-yl)-7-isopropoxy-2-(1-methyl-2-oxabicyclo[2.2.1]heptan-4-yl)imidazo[1,2-a]pyridine-6-carboxamide]		0.0042 µM
O=C(Nc1cccc(C(F)F)n1)c1cn2cc(C3CC3)nc2cc1OC1CC(F)(F)C1 [Example 476, 2-Cyclopropyl-7-(3,3-difluorocyclobutoxy)-N-(6-(difluoromethyl)pyridin-2-yl)imidazo[1,2-a]pyridine-6-carboxamide]	0.0088 µM	
CC12CC(c3cn4cc(C(=O)Nc5cccn(C(F)F)c5=O)c(OCC5CC5(F)F)cc4n3)(CO1)C2 (centres unmarked) [Example 452, 7-((2,2-Difluorocyclopropyl)methoxy)-N-(1-(difluoromethyl)-2-oxo-1,2-dihydropyridin-3-yl)-2-(1-methyl-2-oxabicyclo[2.1.1]hexan-4-yl)imidazo[1,2-a]pyridine-6-carboxamide]		0.0008 µM
CC12CC(c3cn4cc(C(=O)Nc5cnn6cccnc56)c(OC5CCC5)cc4n3)(CO1)C2 [Example 406, 7-Cyclobutoxy-2-(1-methyl-2-oxabicyclo[2.1.1]hexan-4-yl)-N-(pyrazolo[1,5-a]pyrimidin-3-yl)imidazo[1,2-a]pyridine-6-carboxamide]		0.0003 µM
CC(C)Oc1cc2nc(C34CCC(C3)OC4)cn2cc1C(=O)Nc1ccn(C)n1 (centres unmarked) [Example 415, 2-(2-Oxabicyclo[2.2.1]heptan-4-yl)-7-isopropoxy-N-(1-methyl-1H-pyrazol-3-yl)imidazo[1,2-a]pyridine-6-carboxamide]		0.0085 µM
COc1cc2nc(C34COC(CF)(C3)C4)cn2cc1C(=O)Nc1ccccn1 [Example 5]	0.0721 µM	
CC(C)Oc1cc2nc([C@@]34CC[C@@](C)(C3)OC4)cn2cc1C(=O)Nc1cc(F)n(C)n1 (single isomer, unassigned) [Example 603]		0.0053 µM

Continued, values first:

IC50 [1]	IC50	Structure (SMILES)
0.0011 µM		CC(C)Oc1cc2nc(C34COC(C)(C3)C4)cn2cc1C(=O)Nc1cccc(C2CC2)n1 [Example 296, N-(6-cyclopropylpyridin-2-yl)-7-isopropoxy-2-(1-methyl-2-oxabicyclo[2.1.1]hexan-4-yl)imidazo[1,2-a]pyridine-6-carboxamide trifluoroacetate]
	0.0016 µM	CCOc1nc(C(=O)Nc2cccc(C(F)F)n2)cn2cc(C34CCC(C)(C3)OC4)nc12 (centres unmarked) [Example 274, N-(6-(difluoromethyl)pyridin-2-yl)-8-ethoxy-2-(1-methyl-2-oxabicyclo[2.2.1]heptan-4-yl)imidazo[1,2-a]pyrazine-6-carboxamide]
	0.0043 µM	CCOc1nc(C(=O)Nc2cnn3cc(C)cnc23)cn2cc(C34COC(C)(C3)C4)nc12 [Example 498, 8-Ethoxy-2-(1-methyl-2-oxabicyclo[2.1.1]hexan-4-yl)-N-(6-methylpyrazolo[1,5-a]pyrimidin-3-yl)imidazo[1,2-a]pyrazine-6-carboxamide]
	0.0607 µM	Cc1nc(C(=O)Nc2cccc(C(F)F)n2)cn2cc(C3CCOCC3)nc12 [Example 213]
0.0341 µM		COc1nc(C(=O)Nc2cccc3c2OCCC3)cn2cc(C3CCOCC3)nc12 [Example 205, N-chroman-8-yl-8-methoxy-2-tetrahydropyran-4-yl-imidazo[1,2-a]pyrazine-6-carboxamide trifluoroacetate]
	0.0024 µM	CC(C)Oc1nc(C(=O)Nc2cccc(C(F)F)n2)cn2cc([C@]34CC[C@](C)(C3)OC4)nc12 (single isomer, unassigned) [Example 589]
	0.007 µM	CCOc1nc(C(=O)Nc2cccc(C(F)(F)F)c2)cn2cc(C34COC(C)(C3)C4)nc12 [Example 497, 8-Ethoxy-2-(1-methyl-2-oxabicyclo[2.1.1]hexan-4-yl)-N-(3-(trifluoromethyl)phenyl)imidazo[1,2-a]pyrazine-6-carboxamide]
0.0735 µM		COc1cccc(NC(=O)c2cn3cc([C@@]45COC[C@@H]4C5)nc3cc2OC)n1 [Example 30]
	0.0081 µM	COc1ncccc1NC(=O)c1cn2cc(C3CC3)nc2cc1OC1CCCC1 [Example 464, 7-(Cyclopentyloxy)-2-cyclopropyl-N-(2-methoxypyridin-3-yl)imidazo[1,2-a]pyridine-6-carboxamide]
	0.0079 µM	COc1cccc(NC(=O)c2cn3cc(C4CC4)nc3cc2OC2CCCC2)n1 [Example 465, 7-(Cyclopentyloxy)-2-cyclopropyl-N-(6-methoxypyridin-2-yl)imidazo[1,2-a]pyridine-6-carboxamide]
	0.0021 µM	CC(C)Oc1nc(C(=O)Nc2cccc(C(F)F)n2)cn2cc(C34COC(C)(C3)C4)nc12 [Example 336, N-(6-(difluoromethyl)pyridin-2-yl)-8-isopropoxy-2-(1-methyl-2-oxabicyclo[2.1.1]hexan-4-yl)imidazo[1,2-a]pyrazine-6-carboxamide]
	0.0153 µM	CC12CCC(c3cn4cc(C(=O)Nc5cccc(C(F)F)n5)cc(OC(F)F)c4n3)(CO1)C2 (centres unmarked) [Example 251]
	0.0009 µM	CC(C)Oc1nc(C(=O)Nc2cccn(C)c2=O)cn2cc(C34CCC(C)(C3)OC4)nc12 (centres unmarked) [Example 341, 8-Isopropoxy-N-(1-methyl-2-oxo-1,2-dihydropyridin-3-yl)-2-(1-methyl-2-oxabicyclo[2.2.1]heptan-4-yl)imidazo[1,2-a]pyrazine-6-carboxamide]
0.074 µM		COc1cccc(NC(=O)c2cn3cc(C4CCOCC4)nc3c(OC)n2)n1 [Example 77]
0.0064 µM		O=C(Nc1cccc(C(F)F)n1)c1cn2cc(C3CC3)nc2cc1OC1CCOCC1 [Example 473, 2-Cyclopropyl-N-(6-(difluoromethyl)pyridin-2-yl)-7-((tetrahydro-2H-pyran-4-yl)oxy)imidazo[1,2-a]pyridine-6-carboxamide]
0.0004 µM		CC(C)Oc1cc2nc(C3C4COCC43)cn2cc1C(=O)Nc1cccc(C(F)F)n1 (centres unmarked) [Example 253, 2-(3-Oxabicyclo[3.1.0]hexan-6-yl)-N-(6-(difluoromethyl)pyridin-2-yl)-7-isopropoxyimidazo[1,2-a]pyridine-6-carboxamide hydrochloride]
	0.0056 µM	CCOc1nc(C(=O)Nc2cc(F)cnc2OC)cn2cc([C@@H]3CCCOC3)nc12 (single isomer, unassigned) [Example 594]
	0.0067 µM	CC(C)Oc1cc2nc(Cl)cn2cc1C(=O)Nc1cccc(C(F)F)n1 [Example 265, 2-Chloro-N-(6-(difluoromethyl)pyridin-2-yl)-7-isopropoxyimidazo[1,2-a]pyridine-6-carboxamide]
